Measurements taken from article PMC11343806 (Journal of Biological Inorganic Chemistry, 2024).
Where two headings read alike, the source gives them in different places.

Columns and labels:
[1] = system: MDA-MB-231 breast cancer cells; assay: Antiproliferative assay (crystal violet); assay type: cell-based, human; settings: 96 h exposure, ± standard deviation, n = 2–4, read-out: IC50, antiproliferative effects, MDA-MB-231
Method: (§1) The antiproliferative effects were determined according to a previously published procedure. A volume of 100 µL of cell suspension of A549 cells, MDA-MB-231, HT-29 or Vero E6 cells was transferred into the wells of a 96-well plates and incubated at 37 °C under 5% CO2 for 72 h. […] The results were calculated as the mean values of three independent experiments, unless stated otherwise.

[2] = system: HT-29 colon carcinoma cells; assay: Antiproliferative assay (crystal violet); assay type: cell-based, human; settings: 72 h exposure, ± standard deviation, n = 2–4, read-out: IC50, antiproliferative effects, HT-29
Method: as §1

A-549 lung cancer cells = assay: Antiproliferative assay (crystal violet); assay type: cell-based, human; settings: 72 h exposure, ± standard deviation, n = 2–4, read-out: IC50, antiproliferative effects, A-549
Method: as §1

[3] = system: Acinetobacter baumannii (DSM 30007, ATCC 19606); assay: MIC broth dilution, aerobic bacteria; assay type: cell-based; settings: 20 h at 37 °C, ± standard error, n ≥ 3
Method: (§2) The following strains were used and maintained at 37 °C in MHB (21 g/L Müller Hinton, pH 7.4) or TSY (30 g/L trypticase soy broth, 3 g/L yeast extract, pH 7.0–7.2) medium. Acinetobacter baumannii (DSM 30007, ATCC 19606) in MHB, Escherichia coli (DSM1116, ATCC 9637) in TSY, Klebsiella pneumoniae (DSM 11678, ATCC33495) in MHB, Pseudomonas aeruginosa PA7 (DSM 24068) in MHB, Enterococcus faecium (DSM 20477, ATCC 19434) in TSY, Staphylococcus aureus MRSA (DSM 11822, ICB 25701) in TSY). Minimum inhibitory concentration (MIC) values were determined following a standardized protocol in broth dilution assays. […] Starting inocula of 2–8 × 10^5 colony-forming units per ml in MHB or TSY media at 37 °C were used, and serial dilutions were carried out in 384-well microtiter plates in duplicate. […] The MIC values for the tested compounds were determined in three independent experiments by a curve-fitting procedure using the GraphPad Prism software (Graphpad Software, Inc.).

[4] = system: Escherichia coli (DSM1116, ATCC 9637); assay: MIC broth dilution, aerobic bacteria; assay type: cell-based; settings: 20 h at 37 °C, ± standard error, n ≥ 3
Method: as §2

[5] = system: Enterococcus faecium (DSM 20477, ATCC 19434); assay: MIC broth dilution, aerobic bacteria; assay type: cell-based; settings: 20 h at 37 °C, ± standard error; for MIC, E. faecium: n ≥ 3; for MIC: n ≥ 3, read-out: MIC, E. faecium
Method: as §2

[6] = system: Klebsiella pneumoniae (DSM 11678, ATCC33495); assay: MIC broth dilution, aerobic bacteria; assay type: cell-based; settings: 20 h at 37 °C, ± standard error, n ≥ 3, read-out: MIC, K. pneumoniae
Method: as §2

[7] = system: Staphylococcus aureus MRSA (DSM 11822, ICB 25701); assay: MIC broth dilution, aerobic bacteria; assay type: cell-based; settings: 20 h at 37 °C, ± standard error, n ≥ 3
Method: as §2

[8] = system: Pseudomonas aeruginosa PA7 (DSM 24068); assay: MIC broth dilution, aerobic bacteria; assay type: cell-based; settings: ± standard error, n ≥ 3, read-out: MIC, P.aeruginosa
Method: as §2

[9] = system: aerobic Gram-positive and Gram-negative pathogenic bacteria strains; assay: MIC, summary over the panel of aerobic bacteria; assay type: cell-based; settings: for MIC values against all bacteria strains: all strains of the panel
Method: as §2

[10] = target: T1, bacterial TrxR from E. coli (Escherichia coli, UniProt P0A9P4); assay: Inhibition of bacterial TrxR (E. coli), DTNB/5-TNB assay; assay type: biochemical; settings: purified enzyme, 75 min incubation at 25 °C; means and standard deviations
T1 construct: purchased Sigma-Aldrich
Method: The TrxR (E.coli) inhibition assay was performed according to a previously published procedure. It is partly based on the procedure developed by Lu et al.[35] and detects the formation of 5-TNB (5-thionitrobenzoic acid). Solutions of E. coli TrxR (35.4 U/mL) and of its substrate thioredoxin (Trx) E. coli (156 µg/mL) (both purchased from Sigma-Aldrich and diluted with distilled water) and fresh stock solutions of the test compounds (in DMF) were prepared (1c was administered as suspension). TE buffer (Tris–HCl 50 mM, EDTA 1 mM, pH 7.5) containing graded concentrations of the respective compounds (20 µL) or buffer without compounds (20 µL, as control) were mixed with TrxR solution (10 µL), Trx solution (10 µL), and a solution of NADPH (200 µM) in TE buffer (100 µL) in a well on a 96-well plate. As blank solution, 200 µM NADPH in TE buffer (100 µL) mixed with a DMF/buffer mixture (40 µL) was used (final concentrations of DMF: 0.5% v/v). The solutions on the 96-well plate were incubated for 75 min at 25 °C with moderate shaking. A volume of 100 µL of a reaction mixture (TE buffer containing 200 µM NADPH and 5 mM DTNB) was added to each well to initiate the reaction. After thorough mixing, the formation of 5-TNB was monitored by a microplate reader at 405 nm in 35 s intervals (10 measurements). The values were corrected by subtraction of the values for the blank solution. The increase in concentration of 5-TNB followed a linear trend (r^2 ≥ 0.990) and the enzymatic activities were calculated as the gradients (increase in absorbance per second) thereof. Absence of interference with the assay components was confirmed by a negative control experiment for each test compound. The highest test compound concentration was used and the enzyme solution was replaced by TE buffer for this purpose. The IC50 values were calculated as the concentration of the compound decreasing the enzymatic activity of the positive control by 50% and are presented as the means and standard deviations of independent repeated experiments.

[11] = system: Vero E6 non-tumorigenic epithelial kidney cells; assay: Antiproliferative assay (crystal violet); assay type: cell-based, African green monkey; settings: 72 h exposure, ± standard deviation, n = 2–4, read-out: IC50, antiproliferative effects, Vero E6
Method: as §1

[12] = system: A-549, HT-29, MDA-MB-231 and Vero E6 cells; assay: Antiproliferative assay, summary over all cell lines; assay type: cell-based; settings: for IC50: all four cell lines, for 2c except MDA-MB-231, read-out: IC50 values, antiproliferative effects, all cell lines
Method: as §1

[13] = system: C. difficile strain VPI10463 (ATCC 43255), metronidazole-sensitive; assay: Antibacterial effects against C. difficile (anaerobic growth curves, OD600); assay type: cell-based, Clostridioides difficile
Method: (§3) (provided by Ulrich Nübel, DSMZ Braunschweig) were maintained in prereduced BHIS medium (37 g/L BHI, oxoid, 5% yeast extract, 1% L-cysteine) in a Coy-Laboratories anaerobic chamber (85% N2, 10% CO2, 5% H2) at 37 °C. Freshly prepared cultures were incubated until the exponential growth phase (OD600 = 0.2–0.4) and were adjusted to 1 × 10^6 cfu/mL before inoculation. The test compounds were dissolved in DMSO and by two-fold dilution steps concentrations in the range from 200 µM to 0.39 µM in BIHS medium were obtained. The solutions (100µL) were added to 100 µL of a diluted C. difficile culture (total volume: 200 µL in BIHS, 5 × 10^5 C. difficile, 100–0.195 µM test compound per well). The OD600-values over a period of 48 h were measured with a LogPhase 600 4-plate reader (BioTek) and compared with blank BHIS.

[14] = system: C. difficile strain IB136 (NCTC 14385), metronidazole-resistant; assay: as above; assay type: cell-based, Clostridioides difficile
Method: as §3

[15] = system: C. difficile strain 1296^ T (DSM 1296), metronidazole-sensitive; assay: as above; assay type: cell-based, Clostridioides difficile
Method: as §3

T1 sequence (P0A9P4 whole entry): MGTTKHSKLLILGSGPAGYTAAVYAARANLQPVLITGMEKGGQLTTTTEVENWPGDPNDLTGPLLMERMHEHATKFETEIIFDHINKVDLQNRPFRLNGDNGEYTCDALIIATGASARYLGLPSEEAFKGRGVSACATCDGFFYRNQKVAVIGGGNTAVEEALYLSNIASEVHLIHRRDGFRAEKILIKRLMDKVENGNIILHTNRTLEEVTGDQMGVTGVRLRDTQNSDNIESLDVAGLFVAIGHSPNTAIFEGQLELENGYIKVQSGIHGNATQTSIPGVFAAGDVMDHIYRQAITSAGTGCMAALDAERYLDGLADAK

Row | SMILES | IC50 [1] [µM] | IC50 [2] [µM] | IC50 (A-549 lung cancer cells) [µM] | MIC [4] [µM] | MIC, E. faecium [5] [µM] | MIC [6] [µM] | MIC ([8]; 20 h at 37 °C) [µM] | activity against Gram-negative strains (in words) ([9]; aerobic conditions) | IC50 [10] [µM] | IC50 [11] [µM] | IC50 [12] [µM] | MIC [3] [µM] | MIC, E. coli [4] [µM] | MIC, MRSA [7] [µM] | MIC values against all bacteria strains ([9]; aerobic conditions) | also measured
1 | CC(=O)OC[C@H]1O[C@@H]([S-])[C@H](OC(C)=O)[C@@H](OC(C)=O)[C@@H]1OC(C)=O.CCP(CC)CC.[Au+] [Auranofin, reference compound] | 1.2 ± 0.3 | 10.5 ± 4.8 | 4.2 ± 0.6 | > 30 | 0.6 ± 0.2 | > 30 | > 30 | lower active or inactive | 0.21 ± 0.03 | 2.6 ± 0.1 | – | – | – | – | – | MIC, A. baumannii [3]: 7.8 ± 7.1 µM; MIC [7]: < 0.2 µM; activity against Gram-positive strains (in words) ([9]; aerobic conditions): strong activity
2 | CCn1[c]([Au-][Cl])[n+](CC)c2cc(C(=O)O)ccc21 [Compound 1b, Chlorido-(1,3-diethyl-5-carboxybenzimidazol-2-ylidene)gold(I)] | 74.6 ± 1.3 | 66.3 ± 8.8 | > 75 | – | 142.0 ± 0.0 | > 142.0 | > 142.0 | – | 0.297 ± 0.031 | > 100 | > 60 | > 142.0 | 142.0 ± 0.0 | 142.0 ± 0.0 | > 100 µM | –
3 | CCn1[c](=[Au][Cl])n(CC)c2cc(C(=O)OCCn3c([N+](=O)[O-])cnc3C)ccc21 [Compound 1c, Chlorido-(1,3-diethyl-5-((2-(2-methyl-5-nitroimidazol-1-yl)ethoxy)carbonyl)benzimidazol-2-ylidene)gold(I)] | > 100 | > 100 | > 100 | > 106.0 | 44.2 ± 15.3 | > 106.0 | > 106.0 | inactive | 0.145 ± 0.038 | > 100 | > 60 | > 106.0 | – | 106.0 ± 0.0 | – | solubility in organic solvents (Solubility observations): limited solubility in organic solvents; MIC values against Gram-positive strains ([9]; MRSA and E. faecium, except for 1c in MRSA): 37 to 44 µM
4 | CCOC(=O)Cn1[c]([Au-][Cl])[n+](C)c2ccccc21 [Compound 2a, Chlorido-(1-(2-ethoxy-2-oxoethyl)-3-methylbenzimidazol-2-ylidene)gold(I)] | 9.6 ± 2.7 | 19.9 ± 5.1 | 26.1 ± 3.7 | – | – | – | – | – | – | 25.8 ± 4.6 | 9 to 26 | – | – | – | – | cytotoxicity of 2a relative to 2c (times stronger) ([12]; in all cases (all cell lines)): 3–4
5 | Cn1[c](=[Au][Cl])n(CC(=O)O)c2ccccc21 [Compound 2b] | 65.7 ± 8.2 | > 80 | > 100 | – | – | > 151.4 | > 151.4 | – | 0.364 ± 0.103 | > 100 | > 60 | > 151.4 | 151.4 ± 0.0 | 151.4 ± 0.0 | > 100 µM | antibacterial effect, dosages from 0.2 to 100 µM ([13]; strain VPI10463 (Figure S2)): inactive; antibacterial effect, dosages from 0.2 to 100 µM ([14]; strain IB136 (Figure S3)): inactive; antibacterial effect, dosages from 0.2 to 100 µM ([15]; strain 1296T (Figure S1)): inactive; MIC [5]: > 151.4 µM
6 | Cc1ncc([N+](=O)[O-])n1CCO [Metronidazole, reference compound] | – | – | – | – | – | – | – | – | – | – | – | – | – | – | not active | IC50 ([12]; Homo sapiens): > 100 µM; antibacterial effect at 6.25 µM ([13]; strain VPI10463, 6.25 µM, recovery of growth after extended exposure): effective inhibitors; concentration leading to a complete block of bacterial growth without recovery ([14]; metronidazole-resistant strain IB136, up to 100 µM, 48 h): no dosage of the drug could terminate the proliferation; antibacterial effect at 6.25 µM ([14]; resistant strain IB136, 6.25 µM): completely inactive; antibacterial effect at 6.25 µM ([15]; strain 1296T, 6.25 µM, recovery of growth after extended exposure): effective inhibitors; IC50 ([1]; Homo sapiens, MDA-MB-231): > 100 µM; IC50 ([2]; Homo sapiens, HT-29): > 100 µM; IC50 (A-549 lung cancer cells; Homo sapiens, A549): > 100 µM; MIC ([3]; Acinetobacter baumannii): > 350 µM; MIC ([4]; Escherichia coli): > 350 µM; MIC ([5]; Enterococcus faecium): > 350 µM; MIC ([6]; Klebsiella pneumoniae): > 350 µM; MIC ([7]; Staphylococcus aureus): > 350 µM; MIC ([8]; Pseudomonas aeruginosa, DSM24068, 20 h at 37 °C): > 350 µM; IC50 ([11]; Chlorocebus sabaeus, Vero C1008): > 100 µM
